The data set is described as follows: Patch irritancy test on test subject's skin. The conditions noted are these: control diluted to 0.2 percent of the original volume into deionized water.

SMILES strings stand for the structures.

On to `CCCCCCCCCCCCOS(=O)(=O)[O-].[Na+]` [Sodium Lauryl Sulfate], for which the Classification result is reported as “Experimental Cumulative” and the “Irritancy Score” value came out at 14918.5.

The record behind these values is patent US20100261630A1, “ANTIMICROBIAL HAND WASH FORMULATIONS” (priority 2006, published 2010).
